How the values were obtained:
[1] = test system: Rev / IIB (or RRE) region of HIV RNA; details: Zapp et al., Cell, 1993; cited from earlier work
[2] = test system: HIV TAR RNA element oligonucleotide; test: Gel mobility shift, specificity control with unrelated oligonucleotide; assay type: binding; details: incubated with 10 μg/ml gentamicin, FIG. 3
Protocol: (§1) FIG. 3. The presence of 10 pg/ml gentamicin produces a gel mobility shift in the presence of the 16S rRNA oligonucleotide. 20 μl reactions containing increasing concentrations of gentamicin (100 ng/ml, 10 ng/ml, 1 ng/ml, 100 pg/ml, and 10 pg/ml) were added to 50 pmole RNA oligonucleotide in TKM buffer were treated as described for FIG. 2.
RNA oligonucleotides were purchased from Dharmacon, Inc, Lafayette, Colo.). 500 pmole of either a 5′ fluorescein labeled oligonucleotide corresponding to the 16S rRNA A site (5′-[…]-3′ (SEQ ID NO: 29); Moazed & Noller, 1987, Nature 327:389-394; Woodcock et al., 1991, EMBO J. 10:3099-3103; Yoshizawa et al., 1998, EMBO J. 17:6437-6448) or a 5′ fluorescein labeled oligonucleotide corresponding to the HIV-1 TAR element TAR RNA (5′-[…]-3′ (SEQ ID NO: 30); Huq et al., 1999, Nucleic Acids Research. 27:1084-1093; Hwang et al., 1999, Proc. Natl. Acad. Sci. USA 96:12997-13002) was 3′ labeled with 5-^32P cytidine 3′,5′-bis(phosphate) (NEN) and T4 RNA ligase (NEBiolabs) in 10% DMSO as per manufacturer's instructions. […] Then 10 μl of 30% glycerol was added to each reaction tube and the entire sample was loaded onto a TBE non-denaturing polyacrylamide gel and electrophoresed at 1200-1600 volt-hours at 4° C.; The gel was exposed to an intensifying screen and radioactivity was quantitated using a Typhoon phosporimager (Molecular Dynamics). […]

[3] = test system: oligonucleotide corresponding to the 16S rRNA A site; test: Gel retardation analysis (gel mobility shift), gentamicin-16S rRNA; assay type: binding
Protocol: FIG. 2. Gentamicin interacts with an oligonucleotide corresponding to the 16S rRNA. 20 μl reactions containing increasing concentrations of gentamicin (1 ng/ml, 10 ng/ml, 100 ng/ml, 1 μg/ml, 10 μg/ml, 50 μg/ml, 500 μg/ml) were added to 50 pmole RNA oligonucleotide in TKM buffer, heated at 90° C. for 2 min and allowed to cool slowly to 24° C. Then 10 μl of 30% glycerol was added to each sample and the samples were applied to a 13.5% non-denaturing polyacrylamide gel. The gel was electrophoresed using 1200 volt-hours at 4° C. in TBE Buffer Following electrophoresis, the gel was dried and the radioactivity was quantitated using a phosphorimager. The concentration of gentamicin added is indicated above each lane.
as §1
FIG. 4. Gentamicin binding to the 16S rRNA oligonucleotide is weak in the absence of MgCl2.
(§2) Tris-potassium chloride (TK) buffer is composed of 50 mM Tris-HC1 pH 7.4, 20 mM KCl, 0.1%Triton X-100, and 0.5 mM MgCl2. Tris-borate-EDTA (TBE) buffer is composed of 45 mM Tris-borate pH 8.0, and 1 mM EDTA. Tris-Potassium chloride-magnesium (TKM) buffer is composed of 50 mM Tris-HCl pH 7.4, 20 mM KCl, 0.1% Triton X-100 and 5 mM MgCl2.
RNA oligonucleotides were purchased from Dharmacon, Inc, Lafayette, Colo.). 500 pmole of either a 5′ fluorescein labeled oligonucleotide corresponding to the 16S rRNA A site (5′-[…]-3′ (SEQ ID NO: 29); Moazed & Noller, 1987, Nature 327:389-394; Woodcock et al., 1991, EMBO J. 10:3099-3103; Yoshizawa et al., 1998, EMBO J. 17:6437-6448) or a 5′ fluorescein labeled oligonucleotide corresponding to the HIV-1 TAR element TAR RNA (5′-[…]-3′ (SEQ ID NO: 30); Huq et al., 1999, Nucleic Acids Research. 27:1084-1093; Hwang et al., 1999, Proc. Natl. Acad. Sci. USA 96:12997-13002) was 3′ labeled with 5-^32P cytidine 3′,5′-bis(phosphate) (NEN) and T4 RNA ligase (NEBiolabs) in 10% DMSO as per manufacturer's instructions. The labeled oligonucleotides were purified using G-25 Sephadex columns (Boehringer Mannheim). For Tat-TAR gel retardation reactions the method of Huq et al. (Nucleic Acids Research, 1999, 27:1084-1093) was utilized with TK buffer containing 0.5 mM MgCl2 and a 12-mer Tat peptide (YGRKKRRQRRRP (SEQ ID NO: 31); single letter amino acid code). For 16S rRNA-gentamicin reactions, the method of Huq et al. was used with TKM buffer. In 20 μl reaction volumes 50 pmoles of ^32P cytidine-labeled oligonucleotide and either gentamicin sulfate (Sigma) or the short Tat peptide (Tat47.58) in TK or TKM buffer were heated at 90° C. for 2 minutes and allow to cool to room temperature (approximately 24° C.) over 2 hours. Then 10 μl of 30% glycerol was added to each reaction tube and the entire sample was loaded onto a TBE non-denaturing polyacrylamide gel and electrophoresed at 1200-1600 volt-hours at 4° C.; The gel was exposed to an intensifying screen and radioactivity was quantitated using a Typhoon phosporimager (Molecular Dynamics).

[4] = test system: 60-mer from ribosomal RNA; details: Cundliffe et al., 1990; cited from earlier work
[5] = test system: HIV-1 TAR element TAR RNA oligonucleotide; test: Gel retardation analysis (gel mobility shift), Tat peptide-TAR RNA; assay type: binding; details: Tat47-58 0.1-1.6 μM, 50 pmole TAR RNA, TK buffer, 12% non-denaturing polyacrylamide gel, FIG. 1
Protocol: FIG. 1. Gel retardation analysis to detect peptide-RNA interactions. In 20 μl reactions containing increasing concentrations of Tat47.58 peptide (0.1 μM, 0.2 μM, 0.4 μM, 0.8 μM, 1.6 μM) 50 pmole TAR RNA oligonucleotide was added in TK buffer. The reaction mixture was then heated at 90° C. for 2 min and allowed to cool slowly to 24° C. […] of 30% glycerol was added to each sample and applied to a 12% non-denaturing polyacrylamide gel. The gel was electrophoresed using 1200 volt-hours at 4° C. in TBE Buffer. Following electrophoresis, the gel was dried and the radioactivity was quantitated with a phosphorimager. The concentration of peptide added is indicated above each lane.
Tris-potassium chloride (TK) buffer is composed of 50 mM Tris-HC1 pH 7.4, 20 mM KCl, 0.1%Triton X-100, and 0.5 mM MgCl2. Tris-borate-EDTA (TBE) buffer is composed of 45 mM Tris-borate pH 8.0, and 1 mM EDTA. […]
RNA oligonucleotides were purchased from Dharmacon, Inc, Lafayette, Colo.). […] Then 10 μl of 30% glycerol was added to each reaction tube and the entire sample was loaded onto a TBE non-denaturing polyacrylamide gel and electrophoresed at 1200-1600 volt-hours at 4° C.; The gel was exposed to an intensifying screen and radioactivity was quantitated using a Typhoon phosporimager (Molecular Dynamics).

[6] = test system: HIV-1 TAR element TAR RNA oligonucleotide; test: Gel retardation analysis using automated capillary electrophoresis, Tat peptide-TAR RNA; assay type: binding; details: increasing concentrations of Tat peptide (0.1-1.6 μM), TK buffer, SCE9610 apparatus, FIG. 5
Protocol: FIG. 5. Gel retardation analysis to detect peptide-RNA interactions. In reactions containing increasing concentrations of Tat47-58 peptide (0.1 μM, 0.2 μM, 0.4 μM, 0.8 μM, 1.6 μM) 50 pmole TAR RNA oligonucleotide was added in TK buffer. The reaction mixture was then heated at 90° C. for 2 min and allowed to cool slowly to 24° C. The reactions were loaded onto a SCE9610 automated capillary electrophoresis apparatus (SpectruMedix; State College, Pennsylvania). The peaks correspond to the amount of free TAR RNA (“TAR”) or the Tat-TAR complex (“Tat-TAR”). The concentration of peptide added is indicated below each lane.
as §2, with “Tris-HCl” for “Tris-HC1”, “0.1% Triton” for “0.1%Triton”
RNA oligonucleotides were purchased from Dharmacon, Inc. Lafayette, Colo.). 500 pmole of a 5′ fluorescein labeled oligonucleotide corresponding to the HIV-1 TAR element TAR RNA (5′-[…]-3′ (SEQ ID NO: 30); Huq et al., 1999, Nucleic Acids Research. 27:1084-1093; Hwang et al., 1999, Proc. Natl. Acad. Sci. USA 96:12997-13002) was used. […]

Compound: NC[C@H]1O[C@H](O[C@H]2[C@H](O)[C@@H](O[C@H]3O[C@H](CO)[C@@H](O)[C@H](N)[C@H]3O)[C@H](N)C[C@@H]2N)[C@H](N)C[C@@H]1O [tobramycin]
- blocking of the binding of Rev to its viral recognition element in the IIB (or RRE) region of HIV RNA [1]: can block the binding

Compound: gentamicin
- gel mobility shift of unrelated oligonucleotide (HIV TAR RNA element) [2]: does not result in a gel mobility shift
- gentamicin concentration as low as which produces the mobility shift ([3]; TKM buffer (5 mM MgCl2), FIG. 2): 10 ng/mL
- gentamicin concentration as low as which gel mobility shifts are produced ([3]; TKM buffer, concentrations ranged from 100 ng/ml to 10 pg/ml, FIG. 3): 10 pg/mL
- gentamicin binding to the 16S rRNA oligonucleotide in the absence of MgCl2 ([3]; buffer does not contain MgCl2, FIG. 4 legend): weak
- mobility shift when gentamicin is added after renaturation has proceeded to 75° C. ([3]; gentamicin added after the renaturation step proceeded to 75° C.): a mobility shift is not produced
- gel shift when gentamicin is added at 90° C. or 85° C. ([3]; gentamicin present during the entire denaturation/renaturation cycle, data not shown): a gel shift is visualized
- gentamicin concentration that must be added to produce a gel shift when MgCl2 is not present ([3]; no MgCl2 in buffer, FIG. 4): 1 mg/mL
- mobility shift of RNA oligonucleotide corresponding to the 16S rRNA A site ([3]; varying concentrations of gentamicin (1 ng/ml-500 μg/ml), TKM buffer, 13.5% non-denaturing gel, FIG. 2): produces a mobility shift

Compound: NC[C@@H]1O[C@H](O[C@H]2[C@@H](O)[C@H](O[C@@H]3[C@@H](O)[C@H](N)C[C@H](N)[C@H]3O[C@H]3O[C@H](CO)[C@@H](O)C[C@H]3N)O[C@@H]2CO)[C@H](N)[C@@H](O)[C@@H]1O[C@H]1O[C@H](CO)[C@@H](O)[C@H](O)[C@@H]1O [lividomycin A]
- blocking of the binding of Rev to its viral recognition element in the IIB (or RRE) region of HIV RNA [1]: can block the binding

Compound: thiostreptone
- binding to a 60-mer from ribosomal RNA [4]: binds tightly

Compound: NC[C@@H]1O[C@H](O[C@H]2[C@@H](O)[C@H](O[C@@H]3[C@@H](O)[C@H](N)C[C@H](N)[C@H]3O[C@H]3O[C@H](CN)[C@@H](O)[C@H](O)[C@H]3N)O[C@@H]2CO)[C@H](N)[C@@H](O)[C@@H]1O [neomycin B]
- blocking of the binding of Rev to its viral recognition element in the IIB (or RRE) region of HIV RNA [1]: can block the binding

Compound: YGRKKRRQRRRP [Tat47.58 peptide]
- gel mobility shift of TAR RNA oligonucleotide in the presence of the Tat peptide [5]: a clear shift is visible
- shift of TAR RNA peak in automated capillary electrophoresis [6]: a clear shift is visible
